The source of these data is patent US20090149397A1, “TREATMENT OF CANCER WITH COMBINATIONS OF TOPOISOMERASE INHIBITORS AND PARP INHIBITORS” (priority 2007, published 2009).

In assay [1] the test system is human tumor cells including colon, prostate, cervix, lung, melanoma, lymphoma, and leukemia. Briefly: In vitro proliferation of human tumor cells. Format: cell-based.
Assay [2] has as its system human colon, lung, and cervical carcinoma xenograft. Briefly: Human colon, lung and cervical carcinoma xenograft models, BA administration. Format: in vivo, nude and SCID mice. For orientation: In xenograft studies the graft and the host belong to different species.
Assay [3] relates to human small cell lung cancer SW-2 cells. Briefly: Subcutaneous xenograft model of SCLC, BA plus topotecan. The assay is classed as in vivo, SCID mice. The settings on record: SW-2 xenograft; for tumor growth delay: topotecan i.p. 0.5, 1 or 2 mg/kg, BA 25 mg/kg/week continuous infusion, BA value in 3 out of 6 animals. Here is the method:
The anti-tumor effect of a combination of BA and topotecan, one of the approved drugs for the treatment of small cell lung cancer (SCLC) in humans, is evaluated in an established subcutaneous xenograft model of SCLC. SCID mice (24 animals) are inoculated with human small cell lung cancer SW-2 cells (8×10^6 cells/animal) injected subcutaneously into the right flank of the mice. When the tumors reach about 80 mm^3 in size, the mice are randomly divided into four groups (6 animals per group). The first group of mice is treated with topotecan administered i.p. […] Alzet model osmotic pumps are implanted on days 1, 15, and 29. The pumps are pre-warmed for ˜1 hour at 37° C., and then implanted subcutaneously (s.c.) in the left flanks of isofluoraneanesthetized mice. The third group of mice receives a combination of topotecan and BA, using the same doses and schedules as in groups 1 and 2. A control group of animals receives phosphate-buffered saline (PBS) using the same schedule as the animals in group 2. Tumor growth is monitored by measuring tumor size twice per week. Tumor size is calculated using the formula: length×width×height×(½).

For the compound `NC(=O)c1ccc(I)c([N+](=O)[O-])c1` [BA, 4-iodo-3-nitrobenzamide], the “inhibition of proliferation of human tumor cells” value in assay [1] is given as “inhibits the proliferation”. Also, the “survival rate of animals” value in assay [2] (drug given daily or twice weekly) was “positively affects the survival rate”. Further, the tumor growth entry in assay [2] (once-daily or twice-weekly administration of BA) is given as “inhibits tumor growth”. In addition, the “complete tumor regression, number of animals” value in assay [3] (out of 6 treated animals per group) worked out at 3 animals. In addition, the tumor growth delay in assay [3] is listed as 34 days.

Consider `CC[C@@]1(O)C(=O)OCc2c1cc1n(c2=O)Cc2cc3c(CN(C)C)c(O)ccc3nc2-1` [topotecan, reference compound], for which the tumor growth delay in assay [3] is listed as 12 days.
